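Abbreviation: GI50, concentration required for 50% inhibition of growth. TGI: total growth inhibition.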
Legend:
Experiment in all cases: NCI anticancer screen, dose series, 384-well format
A549 NSCLC = test system: A549 NSCLC
U251 glioblastoma = test system: U251 glioblastoma
OVCAR-8 ovarian = test system: OVCAR-8 ovarian
CCRF-CEM leukemia = test system: CCRF-CEM leukemia
SNB-19 CNS = test system: SNB-19 CNS
SK-MEL-28 melanoma = test system: SK-MEL-28 melanoma
HCC-2998 colon = test system: HCC-2998 colon
MDA-MB-435 melanoma = test system: MDA-MB-435 melanoma
OVCAR-5 ovarian = test system: OVCAR-5 ovarian
UACC-257 melanoma = test system: UACC-257 melanoma
SNB-75 CNS = test system: SNB-75 CNS
PC-3 prostate = test system: PC-3 prostate
NCI-H322M lung = test system: NCI-H322M lung
EKVX NSCLC = test system: EKVX NSCLC
HL-60(TB) leukemia = test system: HL-60(TB) leukemia
MALME-3M melanoma = test system: MALME-3M melanoma
COLO 205 colon = test system: COLO 205 colon
SF-295 CNS = test system: SF-295 CNS
ACHN renal = test system: ACHN renal
TK-10 renal = test system: TK-10 renal
SN12C renal = test system: SN12C renal
NCI/ADR-RES ovarian = test system: NCI/ADR-RES ovarian
M14 melanoma = test system: M14 melanoma
HOP-92 NSCLC = test system: HOP-92 NSCLC
NCI-H226 lung = test system: NCI-H226 lung
A498 renal = test system: A498 renal
HS 578T breast = test system: HS 578T breast
SK-OV-3 ovarian = test system: SK-OV-3 ovarian
MCF7 breast = test system: MCF7 breast
MDA-MB-468 breast = test system: MDA-MB-468 breast
T-47D breast = test system: T-47D breast
HOP-62 NSCLC = test system: HOP-62 NSCLC
IGROV1 ovarian = test system: IGROV1 ovarian
UO-31 renal = test system: UO-31 renal
MDA-MB-231 breast = test system: MDA-MB-231 breast
KM12 colon = test system: KM12 colon
HT29 colon = test system: HT29 colon
SW-620 colon = test system: SW-620 colon
BT-549 breast = test system: BT-549 breast
RXF 393 renal = test system: RXF 393 renal
LOX IMVI melanoma = test system: LOX IMVI melanoma
CAKI-1 renal = test system: CAKI-1 renal
MOLT-4 leukemia = test system: MOLT-4 leukemia
786-0 renal = test system: 786-0 renal
SF-539 CNS = test system: SF-539 CNS
NCI-H460 NSCLC = test system: NCI-H460 NSCLC
NCI-H522 lung = test system: NCI-H522 lung
SK-MEL-5 melanoma = test system: SK-MEL-5 melanoma
HCT-116 colon = test system: HCT-116 colon
UACC-62 melanoma = test system: UACC-62 melanoma
RPMI-8226 leukemia = test system: RPMI-8226 leukemia
NCI-H23 lung = test system: NCI-H23 lung
SR leukemia = test system: SR leukemia
SF-268 CNS = test system: SF-268 CNS
OVCAR-4 ovarian = test system: OVCAR-4 ovarian
K-562 leukemia = test system: K-562 leukemia
OVCAR-3 ovarian = test system: OVCAR-3 ovarian
DU-145 prostate = test system: DU-145 prostate

In the case of CCOC(=O)C1=CCCC[C@H]1S(=O)(=O)Nc1ccc(F)cc1Cl, the GI50 (A549 NSCLC) is reported as 32.1 µM, the TGI (A549 NSCLC) is reported as greater than 100 µM and the GI50 (U251 glioblastoma) is reported as 18.1 µM. For the same molecule, the TGI (U251 glioblastoma) was 41 µM, the GI50 (OVCAR-8 ovarian) was 15.6 µM and the TGI (OVCAR-8 ovarian) was 38.6 µM. The GI50 (CCRF-CEM leukemia) was 14.8 µM, the TGI (CCRF-CEM leukemia) was 28.9 µM and the GI50 (SNB-19 CNS) was 23.6 µM. The TGI (SNB-19 CNS) was 79.9 µM, the GI50 (SK-MEL-28 melanoma) was greater than 100 µM and the TGI (SK-MEL-28 melanoma) was greater than 100 µM. It also gave a GI50 (HCC-2998 colon) of 18.4 µM, a TGI (HCC-2998 colon) of 37.3 µM and a GI50 (MDA-MB-435 melanoma) of 31 µM. It also gave a TGI (MDA-MB-435 melanoma) greater than 100 µM, a GI50 (OVCAR-5 ovarian) of 26.7 µM and a TGI (OVCAR-5 ovarian) of 70.6 µM. The GI50 (UACC-257 melanoma) was 17.5 µM, the TGI (UACC-257 melanoma) was 84.9 µM and the GI50 (SNB-75 CNS) was 20.4 µM. The TGI (SNB-75 CNS) was 55.3 µM, the GI50 (PC-3 prostate) was 18.8 µM and the TGI (PC-3 prostate) was 41 µM. For the same molecule, the GI50 (NCI-H322M lung) was 20.1 µM, the TGI (NCI-H322M lung) was 51.1 µM and the GI50 (EKVX NSCLC) was 19.4 µM. It also gave a TGI (EKVX NSCLC) of 44.3 µM, a GI50 (HL-60(TB) leukemia) of 10.6 µM and a TGI (HL-60(TB) leukemia) of 22.7 µM. The GI50 (MALME-3M melanoma) was 21.7 µM, the TGI (MALME-3M melanoma) was 57.6 µM and the GI50 (COLO 205 colon) was 28.4 µM. The TGI (COLO 205 colon) was 62.8 µM, the GI50 (SF-295 CNS) was 19.2 µM and the TGI (SF-295 CNS) was 52.5 µM. The GI50 (ACHN renal) was 27.9 µM, the TGI (ACHN renal) was 85.2 µM and the GI50 (TK-10 renal) was 22 µM. For the same molecule, the TGI (TK-10 renal) was 60.5 µM, the GI50 (SN12C renal) was 18.4 µM and the TGI (SN12C renal) was 48.4 µM. It also gave a GI50 (NCI/ADR-RES ovarian) of 18.6 µM, a TGI (NCI/ADR-RES ovarian) of 39.4 µM and a GI50 (M14 melanoma) of 21.9 µM. For the same molecule, the TGI (M14 melanoma) was 68 µM, the GI50 (HOP-92 NSCLC) was 16.9 µM and the TGI (HOP-92 NSCLC) was 39.8 µM. For the same molecule, the GI50 (NCI-H226 lung) was 18.8 µM, the TGI (NCI-H226 lung) was 52.3 µM and the GI50 (A498 renal) was 19.5 µM. For the same molecule, the TGI (A498 renal) was 49.6 µM, the GI50 (HS 578T breast) was 16.1 µM and the TGI (HS 578T breast) was 42.2 µM. The GI50 (SK-OV-3 ovarian) was 22.3 µM, the TGI (SK-OV-3 ovarian) was 65.5 µM and the GI50 (MCF7 breast) was 14.1 µM. For the same molecule, the TGI (MCF7 breast) was 33 µM, the GI50 (MDA-MB-468 breast) was 12.4 µM and the TGI (MDA-MB-468 breast) was 27.2 µM. It also gave a GI50 (T-47D breast) of 11.4 µM, a TGI (T-47D breast) of 24.1 µM and a GI50 (HOP-62 NSCLC) of 19.4 µM. It also gave a TGI (HOP-62 NSCLC) of 73.7 µM, a GI50 (IGROV1 ovarian) of 29.8 µM and a TGI (IGROV1 ovarian) greater than 100 µM. For the same molecule, the GI50 (UO-31 renal) was 19 µM, the TGI (UO-31 renal) was 47.2 µM and the GI50 (MDA-MB-231 breast) was 27.3 µM. For the same molecule, the TGI (MDA-MB-231 breast) was greater than 100 µM, the GI50 (KM12 colon) was 21 µM and the TGI (KM12 colon) was 48.4 µM. It also gave a GI50 (HT29 colon) of 29.8 µM and a TGI (HT29 colon) greater than 100 µM.

CN[C@H]1CN(c2ccc3c(=O)c(C(=O)O)cn(-c4nccs4)c3n2)C[C@@H]1OC gave a GI50 (A549 NSCLC) of 0.686 µM, a TGI (A549 NSCLC) greater than 100 µM and a GI50 (SW-620 colon) of 0.823 µM. The TGI (SW-620 colon) was 7.71 µM, the GI50 (BT-549 breast) was 0.585 µM and the TGI (BT-549 breast) was 6.87 µM. For the same molecule, the GI50 (RXF 393 renal) was 0.86 µM, the TGI (RXF 393 renal) was 5.37 µM and the GI50 (U251 glioblastoma) was 0.675 µM. The TGI (U251 glioblastoma) was 2.56 µM, the GI50 (OVCAR-8 ovarian) was 0.637 µM and the TGI (OVCAR-8 ovarian) was greater than 100 µM. The GI50 (CCRF-CEM leukemia) was 0.0586 µM, the TGI (CCRF-CEM leukemia) was 0.276 µM and the GI50 (SNB-19 CNS) was 0.559 µM. The TGI (SNB-19 CNS) was 2.93 µM, the GI50 (LOX IMVI melanoma) was 0.776 µM and the TGI (LOX IMVI melanoma) was 2.12 µM. The GI50 (SK-MEL-28 melanoma) was 1.13 µM, the TGI (SK-MEL-28 melanoma) was 2.93 µM and the GI50 (MDA-MB-435 melanoma) was 3.5 µM. It also gave a TGI (MDA-MB-435 melanoma) greater than 100 µM, a GI50 (CAKI-1 renal) of 0.752 µM and a TGI (CAKI-1 renal) of 6.44 µM. For the same molecule, the GI50 (SNB-75 CNS) was 0.855 µM, the TGI (SNB-75 CNS) was 2.47 µM and the GI50 (PC-3 prostate) was 2.41 µM. The TGI (PC-3 prostate) was 15.4 µM, the GI50 (NCI-H322M lung) was 3.52 µM and the TGI (NCI-H322M lung) was 39.7 µM. The GI50 (MOLT-4 leukemia) was 0.0305 µM, the TGI (MOLT-4 leukemia) was 0.12 µM and the GI50 ([…]-0 renal) was 0.434 µM. The TGI (786-0 renal) was 4.59 µM, the GI50 (SF-539 CNS) was 0.85 µM and the TGI (SF-539 CNS) was greater than 100 µM. The GI50 (NCI-H460 NSCLC) was 0.206 µM, the TGI (NCI-H460 NSCLC) was 1.35 µM and the GI50 (NCI-H522 lung) was 1.21 µM. The TGI (NCI-H522 lung) was 5.61 µM, the GI50 (HL-60(TB) leukemia) was 0.0776 µM and the TGI (HL-60(TB) leukemia) was 0.238 µM. For the same molecule, the GI50 (SK-MEL-5 melanoma) was 1.15 µM, the TGI (SK-MEL-5 melanoma) was 2.54 µM and the GI50 (HCT-116 colon) was 0.371 µM. For the same molecule, the TGI (HCT-116 colon) was 3.76 µM, the GI50 (MALME-3M melanoma) was 1.06 µM and the TGI (MALME-3M melanoma) was 2.7 µM. The GI50 (UACC-62 melanoma) was 0.427 µM, the TGI (UACC-62 melanoma) was 1.89 µM and the GI50 (RPMI-8226 leukemia) was 0.0605 µM. For the same molecule, the TGI (RPMI-8226 leukemia) was 1.18 µM, the GI50 (COLO 205 colon) was 0.394 µM and the TGI (COLO 205 colon) was greater than 100 µM. For the same molecule, the GI50 (SF-295 CNS) was 0.426 µM, the TGI (SF-295 CNS) was 2.63 µM and the GI50 (NCI-H23 lung) was 0.551 µM. It also gave a TGI (NCI-H23 lung) of 2.57 µM, a GI50 (ACHN renal) of 0.458 µM and a TGI (ACHN renal) of 2.44 µM. For the same molecule, the GI50 (TK-10 renal) was 1.79 µM, the TGI (TK-10 renal) was 12.1 µM and the GI50 (SN12C renal) was 0.403 µM. The TGI (SN12C renal) was 2.77 µM, the GI50 (SR leukemia) was 0.0189 µM and the TGI (SR leukemia) was 0.0443 µM. The GI50 (M14 melanoma) was 0.674 µM, the TGI (M14 melanoma) was 3.02 µM and the GI50 (HOP-92 NSCLC) was 1.61 µM. For the same molecule, the TGI (HOP-92 NSCLC) was 8.56 µM, the GI50 (NCI-H226 lung) was 1.23 µM and the TGI (NCI-H226 lung) was 3.6 µM. For the same molecule, the GI50 (A498 renal) was 0.781 µM, the TGI (A498 renal) was 3.83 µM and the GI50 (HS 578T breast) was 0.64 µM. For the same molecule, the TGI (HS 578T breast) was 5.24 µM, the GI50 (SF-268 CNS) was 0.421 µM and the TGI (SF-268 CNS) was 6.03 µM. It also gave a GI50 (SK-OV-3 ovarian) of 1.8 µM, a TGI (SK-OV-3 ovarian) of 26.3 µM and a GI50 (MCF7 breast) of 0.602 µM. It also gave a TGI (MCF7 breast) greater than 100 µM, a GI50 (MDA-MB-468 breast) of 0.787 µM and a TGI (MDA-MB-468 breast) of 2.57 µM. The GI50 (OVCAR-4 ovarian) was 4.36 µM, the TGI (OVCAR-4 ovarian) was greater than 100 µM and the GI50 (HOP-62 NSCLC) was 0.479 µM. The TGI (HOP-62 NSCLC) was 2.2 µM, the GI50 (IGROV1 ovarian) was 1.8 µM and the TGI (IGROV1 ovarian) was greater than 100 µM. For the same molecule, the GI50 (K-562 leukemia) was 0.616 µM, the TGI (K-562 leukemia) was 6.05 µM and the GI50 (UO-31 renal) was 1.47 µM. For the same molecule, the TGI (UO-31 renal) was 8.66 µM, the GI50 (MDA-MB-231 breast) was 1.41 µM and the TGI (MDA-MB-231 breast) was 11.4 µM. The GI50 (OVCAR-3 ovarian) was 1.32 µM, the TGI (OVCAR-3 ovarian) was 6.19 µM and the GI50 (KM12 colon) was 0.654 µM. For the same molecule, the TGI (KM12 colon) was 10.7 µM, the GI50 (HT29 colon) was 1.28 µM and the TGI (HT29 colon) was 3.88 µM. It also gave a GI50 (DU-145 prostate) of 1.49 µM and a TGI (DU-145 prostate) of 7.07 µM.
